Test results from patent US12458643B2, “Antidepressant/anxiolytic drug in which PAC1 receptor antagonist is used” (KAGOSHIMA UNIVERSITY, priority 2020, dated 2025).

Columns and labels:
[1] = tested on: normal mice; experiment: Forced swim test in normal mice; format: in vivo, mouse; settings: normal male C57BL/6J mice, 30 mg/kg i.p., 60 min after administration, 6 min swim
Description: The effects of PA-8 and PA-81004 on normal mice were evaluated by a forced swim test (test that exploits the switch of mice caused to swim in an inevitable environment from active escape behavior to a passive state of floating or immobility; in this test, depressive-like behavior is evaluated by placing the mice in an acrylic cylinder of 20 cm in diameter and 25 cm in height filled with water (water temperature: 25° C.) up to a depth of 15 cm, and measuring a passive floating or immobility time).
Male C57BL/6J mice (8 to 12 weeks old) were acclimatized to a laboratory (illuminance: 200 lx) for 60 minutes. Then, a vehicle (10% DMSO solution; dissolved in saline; n=9), PA-8 (30 mg/kg; n=9) or PA-81004 (30 mg/kg; n=9) was intraperitoneally administered thereto (0.1 mL/10 g). After a lapse of 60 minutes after administration, the mice were forced to swim for 6 minutes, and an immobility time was measured.
The effects of PA-9 and PA-915 on normal mice were evaluated by the forced swim test.
Male C57BL/6J mice (8 to 12 weeks old) were acclimatized to a laboratory (illuminance: 200 lx) for 60 minutes. Then, a vehicle (10% DMSO solution; dissolved in saline; n=10), PA-9 (30 mg/kg; n=9) or PA-915 (30 mg/kg; n=9) was intraperitoneally administered thereto (0.1 mL/10 g). After a lapse of 60 minutes after administration, the mice were forced to swim for 6 minutes, and an immobility time was measured.

[2] = tested on: chronic social defeat stress mice; experiment: Chronic social defeat stress, social preference or avoidance test (SPAT); format: in vivo, mouse; settings: for effect on chronic social defeat stress-induced social behavioral abnormality (SPAT): 30 mg/kg i.p. once daily for 7 consecutive days, SPAT 30 min after final administration (Day 18); for sustained effect on social behavioral abnormality (social interaction ratio) / effect on social behavioral abnormality (social interaction ratio): Example 18; for sustained effect on social behavioral abnormality (social interaction ratio): 7, 14, 28 days after single i.p. dose (PA-915 30 mg/kg, ketamine 20 mg/kg), fluoxetine 20 mg/kg i.p. 14-day consecutive administration; for effect on social behavioral abnormality (social interaction ratio): single i.p. dose (PA-915 30 mg/kg, ketamine 20 mg/kg, fluoxetine 20 mg/kg), 60 minutes later (Day 12)
From the text: When male C57BL/6N mice (8 to 12 weeks old) are allowed to coexist with ICR mice having a large physical size, the male C57BL/6N mice run about in the beginning in order to avoid attack by the ICR mice, but eventually make a posture to immediately raise their forelegs and accept defeats (obedience) by repeated load for 5 days to 10 days (chronic social defeat stress (SDS) load).
The social preference or avoidance test (SPAT) is a test that has received attention in recent years as a highly extrapolatable antidepressant drug screening system. SPAT evaluates the degree of interest in others (sociality). A box (which has a wired contact surface) is disposed in an open field. A time of contact with a target (time spent in an interaction zone) and a time spent in an avoidance zone are measured without the target (ICR mice) placed in the box in the first run and with the target (ICR mice) placed in the box in the second run. Time spent in the second run/Time spent in the first run is calculated (social interaction ratio). The social interaction ratio is decreased in chronic social defeat stress mice. Stress susceptibility differs among individuals, and susceptible individuals (social interaction ratio <1) and resilient individuals (social interaction ratio 1) are found.
(§1) Chronic social defeat stress was applied at 10 min/day for 10 days (Days 1 to 10) to male C57BL/6N mice (8 to 12 weeks old) each reared in isolation for 10 days or longer. On Day 11, the social preference or avoidance test (SPAT) was conducted, and susceptible mice were selected. A vehicle (10% DMSO solution; dissolved in saline; n=12) or PA-8 (30 mg/kg; n=9) was intraperitoneally administered once daily (0.1 mL/10 g) for 7 consecutive days from day 12. SPAT was conducted for 150 seconds 30 minutes after the final administration on the 7th day (Day 18). Mice reared for 10 days in a home cage without chronic social defeat stress load were used as a control (n=12). The results are shown in FIG. 15 (A: social interaction ratio, B: time spent in the interaction zone, C: time spent in the avoidance zone). The data was indicated by mean±standard error. *P<0.05 (One-way ANOVA followed by Tukey-Kramer test).
as §1, with “or PA-9” for “or PA-8”, “FIG. 17” for “FIG. 15”, “zone). […]” for “zone).”
Chronic social defeat stress was applied at 10 min/day for 10 days (Days 1 to 10) to male C57BL/6N mice (8 to 12 weeks old) each reared in isolation for 10 days or longer. On Day 11, the social preference or avoidance test (SPAT) was conducted, and susceptible mice were selected. On the next day (Day 12), a vehicle (10% DMSO solution; dissolved in saline; n=17) or PA-915 (30 mg/kg; n=17) was intraperitoneally administered (0.1 mL/10 g) to the mice. SPAT was conducted for 150 seconds 60 minutes later. Mice reared for 10 days in a home cage without chronic social defeat stress load were used as a control (n=22). The results are shown in FIG. 19 (A: social interaction ratio, B: time spent in the interaction zone, C: time spent in the avoidance zone). […] The data was indicated by mean±standard error. **P<0.01; *P<0.05 (One-way ANOVA followed by Tukey-Kramer test). […]

Structure (SMILES)	pharmacological action in forced swim test (immobility time) [1]	effect on chronic social defeat stress-induced social behavioral abnormality (SPAT) [2]	sustained effect on social behavioral abnormality (social interaction ratio) [2]	effect on social behavioral abnormality (social interaction ratio) [2]
C=CCOc1ccc(C2CC(=O)Nc3nc(N)[nH]c(=O)c32)cc1OC (stereo not drawn) [PA-8]	no pharmacological action	improving effect	–	–
CNC1(c2ccccc2Cl)CCCCC1=O (stereo not drawn) [ketamine]	–	–	maintained its effectiveness 7, 14, and 28 days later	improved social behavioral abnormality
O=C(NCCc1c[nH]cn1)C1CC(=O)N(c2n[nH]c3ccccc23)C1 (stereo not drawn) [PA-9]	no pharmacological action	tended to improve social behavioral abnormality	–	–
Nc1nc2c(c(=O)[nH]1)C(c1cccc(OC(F)(F)F)c1)CC(=O)N2 (stereo not drawn) [PA-81004, 2-Amino-5-(3-trifluoromethoxyphenyl)-5,8-dihydro-3H,6H-pyrido[2,3-d]pyrimidine-4,7-dione]	no pharmacological action	–	–	–
CNCCC(Oc1ccc(C(F)(F)F)cc1)c1ccccc1 (stereo not drawn) [fluoxetine]	–	–	neither the single-dose administration nor 14-day consecutive administration of fluoxetine improved social behavioral abnormality	neither the single-dose administration nor 14-day consecutive administration of fluoxetine improved social behavioral abnormality
